Source: a flash point compilation (Sun et al. 2020)

flash point	Compound
39.2 °C	CCCCC(Cl)CC (centres undefined) [3-Chloroheptane]
29.8 °C	CCC(C)C(C)(C)Cl (centres undefined) [2-Chloro-2,3-dimethylpentane]
47.2 °C	CCCCCC(C)(C)Cl [2-Chloro-2-methylheptane]
65.2 °C	CCCCCCCC(C)Cl (centres undefined) [2-Chlorononane]
19.1 °C	CCC(C)(C)CCl [1-Chloro-2,2-dimethylbutane]
72.2 °C	CCCCCCCC(C)(C)Cl [2-Chloro-2-methylnonane]
9.5 °C	CCC(C)(Cl)CC [3-Chloro-3-methylpentane]
21 °C	CCCC(C)(C)Cl [2-Chloro-2-methylpentane]
73.8 °C	CCC[C@H](Cl)CCCC(C)C [(S)-6-Chloro-2-methylnonane]
94.5 °C	CCCCCCCCCCCCl [1-Chloroundecane]
25.1 °C	CCCC(Cl)CC (centres undefined) [3-Chlorohexane]
33.6 °C	CCC(Cl)(CC)CC [3-Chloro-3-ethylpentane]
110.1 °C	CCCCCCCCC(Cl)CCCC (centres undefined) [5-Chlorotridecane]
38.4 °C	CC(C)(C)CC(C)(C)Cl [2-Chloro-2,4,4-trimethylpentane]
39.2 °C	CCCC(C)CCCl (centres undefined) [1-Chloro-3-methylhexane]
77.1 °C	CCCCCCCCC(C)Cl (centres undefined) [2-Chlorodecane]
41.8 °C	CCCCCCCCl [1-Chloroheptane]
138.2 °C	CCCCCCCCCCCCCCCCCl [1-Chlorohexadecane]
25.1 °C	CCC(C)CCCl (centres undefined) [1-Chloro-3-methylpentane]
26.8 °C	CCCCCCCl [1-Chlorohexane]
25.1 °C	CCC(CC)CCl [3-(Chloromethyl)pentane]
65.2 °C	CCCCC(Cl)CCCC [5-Chlorononane]
10 °C	CCC(C)CCl (centres undefined) [1-Chloro-2-methylbutane]
47.2 °C	CCCCC(C)(Cl)CC (centres undefined) [3-Chloro-3-methylheptane]
72.2 °C	CCCCCCC(C)(Cl)CC (centres undefined) [3-Chloro-3-methylnonane]

Compound	flash point
CCCCCl [1-Chlorobutane]	-11.0 °C
CCCCCCCCCl [1-Chlorooctane]	61.1 °C

Remark: another data set of the same source

flash point	Compound
71.2 °C	CCCCc1ccc(C)cc1 [1-butyl-4-methylbenzene]
65.8 °C	CCc1ccc(C(C)C)cc1 [p -ethylcumene]
95.5 °C	CCCCCCCc1ccccc1 [heptylbenzene]
61.5 °C	Cc1ccccc1C(C)(C)C [2-tert -butyltoluene]
72 °C	Cc1cc(C)cc(C(C)(C)C)c1 [1-tert -butyl-3,5-dimethylbenzene]
109.2 °C	CCCCc1cccc(CCCC)c1 [1,3-dibutylbenzene]
52 °C	CCCc1cccc(C)c1 [m -propyltoluene]
57.1 °C	CCc1ccc(C)cc1C [1-ethyl-2,4-dimethylbenzene]
68.7 °C	Cc1ccccc1CC(C)C [1-isobutyl-2-methylbenzene]
83.6 °C	CCCCCCc1ccccc1 [hexylbenzene]
44.1 °C	CC(C)(C)c1ccccc1 [tert -butylbenzene]
56.4 °C	CCCc1ccc(C)cc1 [p -propyltoluene]
51.1 °C	CCc1cccc(CC)c1 [m -diethylbenzene]
64.1 °C	CCC(C)Cc1ccccc1 (centres undefined) [(2-methylbutyl)benzene]
57.4 °C	CCc1cc(C)cc(C)c1 [1-ethyl-3,5-dimethylbenzene]
50.1 °C	CC(C)(C)Cc1ccccc1 [neopentylbenzene]
59.4 °C	CCC(C)(C)c1ccccc1 [2-phenyl-2-methylbutane]
87.0 °C	CC(C)CC(C)Cc1ccccc1 (centres undefined) [(2,4-dimethylpentyl)benzene]
97.0 °C	CC(C)(C)c1ccc(C(C)(C)C)cc1 [1,4-di-tert -butylbenzene]
107.1 °C	CCCCCCCCc1ccccc1 [octylbenzene]
62.0 °C	CCc1c(C)cccc1C [2-ethyl-1,3-dimethylbenzene]
65.1 °C	CCc1cccc(C)c1C [1-ethyl-2,3-dimethylbenzene]
64.7 °C	Cc1ccc(C)c(C(C)C)c1 [1,4-dimethyl-2-isopropylbenzene]
70.8 °C	CCCCc1cccc(C)c1 [1-butyl-3-methylbenzene]
79 °C	CCc1cccc(CC)c1CC [1,2,3-triethylbenzene]
63 °C	CCc1cccc(C(C)C)c1 [m -ethylcumene]

Compound	flash point
CCCCc1ccccc1 [butylbenzene]	58.1 °C
Cc1cc(C)cc(C)c1 [1,3,5-trimethylbenzene]	44.1 °C
Cc1ccccc1C [o -xylene]	30.1 °C
CC(C)Cc1ccccc1 [isobutylbenzene]	50.1 °C

Remark: another data set of the same source

Compound	flash point
CCCCCl [1-Chlorobutane]	-9.3 °C

Remark: another data set of the same source

Compound	flash point
CCC[CH2][Sn]([CH2]CCC)([CH2]CCC)[O]CC [TRI-n-BUTYLETHOXYTIN]	104.00 °C
C1CC[CH]([SnH]([CH]2CCCCC2)[CH]2CCCCC2)CC1 [TRICYCLOHEXYLTIN HYDRIDE]	105.00 °C
CCC[CH2][Sn]([CH2]CCC)([CH2]CCC)[CH2]CCC [TETRA-n-BUTYLTIN]	107.00 °C
CCC[CH2][Sn]([Cl])([CH2]CCC)[CH2]CCC [TRI-n-BUTYLCHLOROTIN]	120.00 °C
CCC[CH2][Sn]([CH2]CCC)([CH2]CCC)[c]1ccccc1 [PHENYLTRI-n-BUTYLTIN]	107.00 °C
C[N](C)[Sn]([CH3])([CH3])[CH3] [DIMETHYLAMINOTRIMETHYLTIN]	1.00 °C
C[C](C)(C)[Sn]([Cl])([Cl])[C](C)(C)C [DI-t-BUTYLDICHLOROTIN]	113.00 °C
CCC[CH2][Sn]([CH2]CCC)([CH2]CCC)[C](C)(C)C [t-BUTYLTRI n-BUTYLTIN]	102.00 °C
CCCC[O][Sn]([CH2]CCC)([CH2]CCC)[O]CCCC [DI-n-BUTYLDI-n-BUTOXYTIN]	116.00 °C
CCC[CH2][SnH]([CH2]CCC)[CH2]CCC [TRI-n-BUTYLTIN HYDRIDE]	40.00 °C
CCC[CH2][Sn]([CH2]CCC)([O]C)[O]C [DI-n-BUTYLDIMETHOXYTIN]	110.00 °C
CCC[CH2][Sn]([CH2]CCC)([O]C(C)=O)[O]C(C)=O [DI-n-BUTYLDIACETOXYTIN]	143.00 °C
CCCCCCCCCCC[CH2][Sn]([CH2]CCCCCCC)([CH2]CCCCCCC)[CH2]CCCCCCCCCCC [DIOCTYLDILAURYLTIN]	198.00 °C
c1cc[c]([Sn]([c]2ccccc2)([c]2ccccc2)[c]2ccccc2)cc1 [TETRAPHENYLTIN]	231.00 °C
CCC[CH2][Sn]([I])([CH2]CCC)[CH2]CCC [TRI-n-BUTYLIODOTIN]	113.00 °C
C#[C][Sn]([CH2]CCC)([CH2]CCC)[CH2]CCC [ETHYNYLTRI-n-BUTYLTIN]	73.00 °C
CCCCCCC[CH2][Sn]([CH2]CCCCCCC)([CH2]CCCCCCC)[CH2]CCCCCCC [TETRA-n-OCTYLTIN]	94.00 °C
C=C[CH2][Sn]([CH2]C=C)([CH2]CCC)[CH2]CCC [DIALLYLDI-n-BUTYLTIN]	101.00 °C
[CH3][Sn]([CH3])([CH3])[Cl] [TRIMETHYLCHLOROTIN]	97.00 °C
[CH3][Sn]([CH3])([CH3])[CH3] [TETRAMETHYLTIN]	-12.00 °C

Remark: another data set of the same source

flash point	Compound
65 °C	CCC(C)(C)c1ccccc1 [2-phenyl-2-methylbutane]

Remark: another data set of the same source

Compound	flash point
CC(C)C[O-].CC(C)C[O-].CC(C)C[O-].CC(C)C[O-].[Ti+4] [TITANIUM ISOBUTOXIDE]	77.00 °C
CCOP(OCC)OCC [TRIETHYLPHOSPHITE]	54.00 °C
CC(C)(C)CCCCCC(=O)[O-].CC(C)(C)CCCCCC(=O)[O-].[Zn+2] [ZINC NEODECANOATE]	102.00 °C
CCCC[O-].CCCC[O-].CCCC[O-].[B+3] [BORON n-BUTOXIDE]	93.00 °C
CC(C)[O-].CC(C)[O-].CC(C)[O-].[B+3] [BORON ISOPROPOXIDE]	28.00 °C
C[N-]C.C[N-]C.C[N-]C.C[N-]C.[Ti+4] [TITANIUM TETRAKIS(DIMETHYLAMIDE)]	8.00 °C
c1ccc(Pc2ccccc2)cc1 [DIPHENYLPHOSPHINE]	110.00 °C
CC[N](CC)[Ta](=[N]C(C)(C)C)([N](CC)CC)[N](CC)CC [TRIS(DIETHYLAMINO)(t-BUTYLIMINO) TANTALUM]	46.00 °C
[CH3][Cd][CH3] [DIMETHYLCADMIUM]	-18.00 °C
CCCC[O-].CCCC[O-].CCCC[O-].CCCC[O-].[Ti+4] [TITANIUM n-BUTOXIDE]	76.00 °C
Cc1ccccc1[O-].Cc1ccccc1[O-].Cc1ccccc1[O-].Cc1ccccc1[O-].[Ti+4] [TITANIUM METHYLPHENOXIDE]	66.00 °C
CC(C)(C)[O-].CC(C)(C)[O-].CC(C)(C)[O-].CC(C)(C)[O-].[Zr+4] [ZIRCONIUM t-BUTOXIDE]	85.00 °C
CC[N-]C.CC[N-]C.CC[N-]C.CC[N-]C.[Zr+4] [ZIRCONIUM TETRAKIS(ETHYLMETHYLAMIDE)]	10.00 °C
C[Si](C)(C)OB(O[Si](C)(C)C)O[Si](C)(C)C [TRIS(TRIMETHYLSILOXY)BORON]	42.00 °C
C[O-].C[O-].C[O-].[B+3] [BORON METHOXIDE]	-1.00 °C
CCCCC(CC)C(=O)[O-].CCCCC(CC)C(=O)[O-].[Ca+2] (centres undefined) [CALCIUM 2-ETHYLHEXANOATE]	127.00 °C
C[O-].C[O-].C[O-].C[O-].[Ti+4] [TITANIUM METHOXIDE]	48.00 °C
CC[N-]C.CC[N-]C.CC[N-]C.CC[N-]C.[Hf+4] [HAFNIUM TETRAKIS(ETHYLMETHYLAMIDE)]	10.00 °C
CCCCCCCCP(CCCCCCCC)CCCCCCCC [TRIOCTYLPHOSPHINE]	147.00 °C
C=C[c-]1cccc1.[Fe+2].c1cc[cH-]c1 [VINYLFERROCENE]	62.00 °C
CCCCC(CC)C(=O)[O-].CCCCC(CC)C(=O)[O-].[Zn+2] (centres undefined) [ZINC 2-ETHYLHEXANOATE]	127.00 °C
C[CH2][Pb]([CH2]C)([CH2]C)[CH2]C [TETRAETHYLLEAD]	73.00 °C

Remark: another data set of the same source

Compound	flash point
CCCCCCCc1ccccc1 [heptylbenzene]	95 °C
CCCCc1ccccc1 [butylbenzene]	49 °C
CC(C)Cc1ccccc1 [isobutylbenzene]	55 °C
